Source: patent US12606523B2, “Deuterated organic compounds and uses thereof” (ENGRAIL THERAPEUTICS, INC., priority 2022, dated 2026)

Legend:
[1] = target: T1, human Serotonin 5-HT1A receptor (Homo sapiens, UniProt P08908); settings: cAMP; % of reference agonist at EC100
T1 sequence (P08908 1-422): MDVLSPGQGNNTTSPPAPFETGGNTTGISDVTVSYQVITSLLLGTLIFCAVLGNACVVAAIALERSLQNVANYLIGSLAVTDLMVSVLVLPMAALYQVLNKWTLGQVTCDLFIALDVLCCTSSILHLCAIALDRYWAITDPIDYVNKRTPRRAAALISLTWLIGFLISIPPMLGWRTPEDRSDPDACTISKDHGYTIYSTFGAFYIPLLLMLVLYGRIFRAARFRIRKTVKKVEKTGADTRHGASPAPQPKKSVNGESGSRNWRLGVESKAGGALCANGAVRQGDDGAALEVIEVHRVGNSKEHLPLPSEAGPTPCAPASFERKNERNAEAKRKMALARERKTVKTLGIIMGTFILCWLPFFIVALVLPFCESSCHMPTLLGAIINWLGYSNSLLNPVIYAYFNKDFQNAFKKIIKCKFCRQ
Procedure: (§1) SPA ^35S-GTPgS experiments are conducted with membrane preparations. IP-One and cAMP HTRF assays are conducted with recombinant cell lines.
(§2) Agonist activity of test compounds is expressed as a percentage of the activity of the reference agonist at its EC100 concentration. Antagonist activity of the test compound is expressed as a percentage of the inhibition of reference agonist activity at its EC80 concentration.

[2] = target: T2, human Serotonin 5-HT2A receptor (Homo sapiens, UniProt P28223); settings: IP-one; % of reference agonist at EC100
T2 sequence (P28223 whole entry): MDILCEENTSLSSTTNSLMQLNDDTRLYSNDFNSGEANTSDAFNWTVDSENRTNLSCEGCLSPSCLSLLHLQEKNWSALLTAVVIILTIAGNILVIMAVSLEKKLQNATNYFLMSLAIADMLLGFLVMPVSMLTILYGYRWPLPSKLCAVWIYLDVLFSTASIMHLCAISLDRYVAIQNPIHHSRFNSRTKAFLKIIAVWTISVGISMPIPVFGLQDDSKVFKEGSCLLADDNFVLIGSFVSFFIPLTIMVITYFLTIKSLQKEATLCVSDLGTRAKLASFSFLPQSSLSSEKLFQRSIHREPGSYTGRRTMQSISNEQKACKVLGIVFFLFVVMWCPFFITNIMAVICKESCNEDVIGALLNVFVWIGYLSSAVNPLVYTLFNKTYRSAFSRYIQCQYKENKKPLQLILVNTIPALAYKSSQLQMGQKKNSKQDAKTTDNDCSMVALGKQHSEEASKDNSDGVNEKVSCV
Procedure: as §1, §2

Sprague Dawley rats [3] = assay: DOI-induced headshake response; type: in vivo; settings: rat
Procedure: Adult male Sprague Dawley rats are used. […] DOI (3 mg/kg) is dissolved in saline and administered IP at a dose volume of 1 ml/kg (10 minutes prior to test). Ketanserin (1 mg/kg) is dissolved in saline and injected IP 30 minutes prior to DOI at a dose volume of […].
Rats are then injected with DOI and headshakes are recorded 10 minutes after DOI injection for 10 minutes using video cameras. The headshake response is a rapid, rhythmic shaking of the head in a radial motion. Data is analyzed by ANOVA followed by post hoc analysis where appropriate.

Sprague Dawley rats [4] = assay: Headshake response; type: in vivo, rat
Procedure: Adult male Sprague Dawley rats are used. […] DOI (3 mg/kg) is dissolved in saline and administered IP at a dose volume of 1 ml/kg (10 minutes prior to test).
The headshake response is a rapid, rhythmic shaking of the head in a radial motion. Data are analyzed by ANOVA followed by post hoc analysis where appropriate.

[5] = target: human Dopamine D2L receptor (Homo sapiens, UniProt P14416); settings: cAMP, % inhibition of reference agonist at EC80
Sequence of human Dopamine D2L receptor (P14416 whole entry): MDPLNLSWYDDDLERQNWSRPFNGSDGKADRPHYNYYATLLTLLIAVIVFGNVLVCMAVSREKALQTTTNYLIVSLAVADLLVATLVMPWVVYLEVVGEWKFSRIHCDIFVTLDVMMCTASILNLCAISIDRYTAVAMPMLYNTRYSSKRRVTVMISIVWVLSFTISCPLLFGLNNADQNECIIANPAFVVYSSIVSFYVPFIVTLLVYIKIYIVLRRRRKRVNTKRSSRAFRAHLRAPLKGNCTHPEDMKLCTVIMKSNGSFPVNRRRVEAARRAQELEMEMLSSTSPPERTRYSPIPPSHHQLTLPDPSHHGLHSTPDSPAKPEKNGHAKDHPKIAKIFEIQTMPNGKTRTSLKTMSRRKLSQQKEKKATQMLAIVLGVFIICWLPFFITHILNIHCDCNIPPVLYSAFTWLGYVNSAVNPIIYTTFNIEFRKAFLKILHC
Procedure: as §1, §2

Sprague Dawley rats [6] = settings: rat, in vivo, po, 5 mg/kg
Description: (§3) The Conditioned Avoidance Response (CAR) Test is an animal model screening for antipsychotic drugs.

[7] = target: T3, human Serotonin 5-HT7A receptor (Homo sapiens, UniProt P34969); assay: cAMP HTRF functional assay, antagonist mode; type: cell-based
T3 construct: expressed in transfected cells; host or cells: CHO-K1
T3 sequence (P34969 1-445 isoform P34969-2): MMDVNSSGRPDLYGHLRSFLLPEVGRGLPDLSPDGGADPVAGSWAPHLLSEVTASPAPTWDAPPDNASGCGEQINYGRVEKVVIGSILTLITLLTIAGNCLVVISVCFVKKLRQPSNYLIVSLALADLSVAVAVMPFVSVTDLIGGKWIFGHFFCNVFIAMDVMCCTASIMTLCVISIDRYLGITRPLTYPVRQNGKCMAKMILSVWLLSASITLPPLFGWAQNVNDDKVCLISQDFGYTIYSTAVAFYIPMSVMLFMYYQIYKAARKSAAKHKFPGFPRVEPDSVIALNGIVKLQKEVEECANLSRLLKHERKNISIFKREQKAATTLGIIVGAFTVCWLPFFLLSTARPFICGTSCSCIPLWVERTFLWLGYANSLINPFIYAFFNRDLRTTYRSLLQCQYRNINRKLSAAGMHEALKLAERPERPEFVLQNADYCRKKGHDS

5-HT1A = target: T4, 5-HT1A (Homo sapiens, UniProt P08908); assay: Functional assay, antagonist mode (Table 6); type: cell-based; settings: read-out: 5-HT1A (antagonist mode) Emax
T4 sequence (P08908 1-422): T1 sequence (P08908 1-422)

5-HT2B = 5-HT2B (Homo sapiens, UniProt P41595); assay: Functional assay, antagonist mode (Table 6); type: cell-based
Sequence of 5-HT2B (P41595 whole entry): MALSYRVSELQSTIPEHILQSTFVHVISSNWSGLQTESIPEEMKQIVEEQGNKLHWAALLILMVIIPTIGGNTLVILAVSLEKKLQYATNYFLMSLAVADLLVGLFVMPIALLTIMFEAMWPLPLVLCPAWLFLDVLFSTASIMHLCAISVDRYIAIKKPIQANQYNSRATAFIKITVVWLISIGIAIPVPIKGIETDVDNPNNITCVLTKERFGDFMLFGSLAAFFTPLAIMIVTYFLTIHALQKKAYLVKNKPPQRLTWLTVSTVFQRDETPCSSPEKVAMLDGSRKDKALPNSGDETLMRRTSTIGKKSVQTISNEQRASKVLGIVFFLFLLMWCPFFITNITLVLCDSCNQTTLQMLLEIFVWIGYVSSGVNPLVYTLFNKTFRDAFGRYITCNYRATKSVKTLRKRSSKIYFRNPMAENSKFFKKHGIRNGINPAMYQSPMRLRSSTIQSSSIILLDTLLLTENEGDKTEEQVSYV

Sprague Dawley rats [8] = assay: Touchscreen-based rat Probabilistic Reward Task; type: in vivo
Description: The Probabilistic Reward Task (PRT) uses visual discrimination methodology to quantify reward responsiveness to both identify deficits and characterize drug-induced improvements.
Male Sprague Dawley rats are used in the present study.
Briefly, a custom-built Plexiglas chamber (25×30×35 cm) is situated in a sound- and light-attenuating enclosure (40×60×45 cm). A 17″ touch-sensitive screen (1739L, ELO TouchSystems, Menlo Park, CA) comprises the inside right-hand wall of the enclosure. An infusion pump (PHM-100-5, Med Associates, St. Albans, VT) outside the enclosure is used to deliver sweetened condensed milk solution into the shallow reservoir of a custom-designed aluminum receptacle. The receptacle is mounted 3 cm above the floor bars and centered on the left-hand inside wall. Both touchscreen and fluid reservoir are easily accessible to the subject. A speaker bar (NQ576AT, Hewlett-Packard, Palo Alto, CA) mounted above the touchscreen is used to emit audible feedback. All experimental events and data collection are programmed in E-Prime Professional 2.0 (Psychology Software Tools, Inc., Sharpsburg, PA). […]
Following line-length discrimination training, probabilistic reinforcement schedules are introduced. […] These probabilistic contingencies are assessed across 5 consecutive sessions prior to initiation of drug testing. […]

Sprague Dawley rats [9] = assay: Conditioned Avoidance Response test; settings: rat
Description: as §3

[10] = target: T3, human Serotonin 5-HT7A receptor; assay: Radioligand binding competition, filtration, [3H]-LSD, CHO-K1 membranes
[11] = target: human Dopamine D3 receptor (Homo sapiens, UniProt P35462); settings: GTPγS; % inhibition of reference agonist at EC80
Sequence of human Dopamine D3 receptor (P35462 whole entry): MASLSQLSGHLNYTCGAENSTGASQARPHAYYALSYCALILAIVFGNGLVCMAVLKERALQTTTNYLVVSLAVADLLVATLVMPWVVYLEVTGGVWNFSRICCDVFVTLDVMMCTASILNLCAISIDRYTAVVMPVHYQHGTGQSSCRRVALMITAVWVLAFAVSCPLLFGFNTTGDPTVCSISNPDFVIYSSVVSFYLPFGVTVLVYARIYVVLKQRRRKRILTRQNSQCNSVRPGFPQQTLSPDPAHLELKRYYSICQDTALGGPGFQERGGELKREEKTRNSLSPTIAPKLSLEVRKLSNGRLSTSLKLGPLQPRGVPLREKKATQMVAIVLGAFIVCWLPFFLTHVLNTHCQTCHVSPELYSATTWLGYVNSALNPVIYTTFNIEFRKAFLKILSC
Procedure: as §1, §2

[12] = target: human Dopamine D2S receptor (Homo sapiens, UniProt P14416); settings: cAMP, % inhibition of reference agonist at EC80
Sequence of human Dopamine D2S receptor (P14416 1-414 isoform P14416-2): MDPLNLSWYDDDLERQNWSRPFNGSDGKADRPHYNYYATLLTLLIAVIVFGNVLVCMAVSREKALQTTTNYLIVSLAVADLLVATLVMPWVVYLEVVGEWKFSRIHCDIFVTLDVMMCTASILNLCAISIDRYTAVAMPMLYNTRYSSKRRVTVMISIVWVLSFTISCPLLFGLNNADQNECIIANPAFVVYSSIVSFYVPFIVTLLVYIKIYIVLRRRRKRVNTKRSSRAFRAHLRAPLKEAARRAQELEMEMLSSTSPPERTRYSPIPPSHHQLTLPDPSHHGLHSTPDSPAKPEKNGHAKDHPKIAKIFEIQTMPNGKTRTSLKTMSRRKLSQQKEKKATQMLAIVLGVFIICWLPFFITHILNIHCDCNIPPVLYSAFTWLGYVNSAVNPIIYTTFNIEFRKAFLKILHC
Procedure: (§4) IP-One and cAMP HTRF assays are conducted with recombinant cell lines.
as §2

[13] = target: T2, human Serotonin 5-HT2A receptor; assay: IP-One HTRF functional assay, antagonist mode; type: cell-based; parameters: expressed in transfected cells; host or cells: CHO-K1; settings: % inhibition of reference agonist at EC80
Procedure: as §4, §2

[14] = target: T5, human Dopamine D4.4 receptor (Homo sapiens, UniProt P21917); settings: cAMP; % inhibition of reference agonist at EC80
T5 sequence (P21917 1-419): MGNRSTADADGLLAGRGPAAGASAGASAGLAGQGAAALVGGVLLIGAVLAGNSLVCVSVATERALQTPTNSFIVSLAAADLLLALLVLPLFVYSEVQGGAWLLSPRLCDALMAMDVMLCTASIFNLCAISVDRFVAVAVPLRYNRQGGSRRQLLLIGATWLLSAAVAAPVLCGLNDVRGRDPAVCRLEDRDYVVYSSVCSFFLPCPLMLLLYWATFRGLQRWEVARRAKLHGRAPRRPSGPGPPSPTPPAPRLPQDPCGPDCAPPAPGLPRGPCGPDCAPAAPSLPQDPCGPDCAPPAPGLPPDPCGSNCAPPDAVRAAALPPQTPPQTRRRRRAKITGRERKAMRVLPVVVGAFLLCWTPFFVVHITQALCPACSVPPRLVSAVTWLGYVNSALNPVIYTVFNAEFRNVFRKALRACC
Procedure: as §1, §2

[15] = 2.5 and 5 mg/kg orally 4 hours prior to test
[16] = 0.5 mg/kg i.p. 30 minutes prior to test

SMILES: CNc1cc(OC)c(C(=O)N[C@H]2CCN(Cc3ccccc3)[C@H]2C)cc1Cl (racemic) [Nemonapride, (±)-cis-N-(1-Benzyl-2-methylpyrrolidin-3-yl)-5-chloro-2-methoxy-4-methylaminobenzamide]
- 5-HT1A (agonist mode) Top % Activation at maximal concentration [1]: cAMP 52%
- 5-HT2A (agonist mode) Top % Activation at maximal concentration [2]: IP-one 48%

SMILES: COc1cc(CC(C)N)c(OC)cc1I (centres unmarked) [DOI, reference compound]
- number of headshakes compared to vehicle (Sprague Dawley rats [3]; DOI 3 mg/kg IP): significantly increases
- number of headshakes compared to vehicle (Sprague Dawley rats [4]; rat, 3 mg/kg IP 10 minutes prior to test): significantly increases

SMILES: [2H]C([2H])([2H])Nc1cc(OC)c(C(=O)N[C@H]2CCN(C([2H])([2H])c3ccccc3)[C@H]2C)cc1Cl [Example A1, 5-Chloro-N-((2S,3S)-1-(dideutero(phenyl)methyl)-2-methylpyrrolidin-3-yl)-2-methoxy-4-(trideuteromethylamino)benzamide]
- D2 (antagonist mode) Top % Inhibition at maximal concentration, D2L [5]: cAMP 81 (D2L) %
- DOI-induced headshake responses (Sprague Dawley rats [3]; 1 mg/kg PO 4 hours prior, DOI 3 mg/kg IP, p=0.051): non-significant trend to decreasing
- DOI-induced headshake responses (Sprague Dawley rats [3]; 5 and 10 mg/kg PO 4 hours prior, DOI 3 mg/kg IP): decrease
- escape failures compared to vehicle (Sprague Dawley rats [6]): increase
- IC50 [7]: 2240 nM
- Emax (5-HT1A): 63%
- Emax (5-HT2B): 92%
- log b vs vehicle, Cohen's d (Sprague Dawley rats [8]; 0.5 mg/kg orally, n=8, paired t-test p=0.006): 1.21
- log b vs vehicle, Cohen's d (Sprague Dawley rats [8]; 1 mg/kg orally, n=8, paired t-test p=0.04): 0.75
- number of avoidance responses compared to vehicle (Sprague Dawley rats [9]; [15]): significantly decrease
- percent avoidance compared to vehicle (Sprague Dawley rats [9]; [15]): significantly decrease
- number of headshakes compared to vehicle (Sprague Dawley rats [4]; rat, 1, 5 and 10 mg/kg PO 4 hours prior to test): no significant increase
- Ki [10]: 74.4 nM

SMILES: O=C(c1ccc(F)cc1)C1CCN(CCn2c(=O)[nH]c3ccccc3c2=O)CC1 [Ketanserin, reference compound]
- DOI-induced headshake responses (Sprague Dawley rats [3]; 1 mg/kg IP 30 minutes prior to DOI 3 mg/kg IP): decrease

SMILES: CNc1cc(OC)c(C(=O)N[C@H]2CCN(Cc3ccccc3)[C@H]2C)cc1Cl [cis (S,S) nemonapride, N-[(2S,3S)-1-benzyl-2-methylpyrrolidin-3-yl]-5-chloro-2-methoxy-4-(methylamino)benzamide]
- D2 (antagonist mode) Top % Inhibition at maximal concentration, D2L [5]: cAMP 84 (D2L) %
- D3 (antagonist mode) Top % Inhibition at maximal concentration [11]: GTPγS 117%
- 5-HT1A (agonist mode) Top % Activation at maximal concentration [1]: cAMP 17%
- D2 (antagonist mode) Top % Inhibition at maximal concentration, D2S [12]: cAMP 88 (D2S) %
- 5-HT2A (agonist mode) Top % Activation at maximal concentration [2]: IP-one 29%
- 5-HT2A (antagonist mode) Top % Inhibition at maximal concentration [13]: IP-one 52%
- D4 (antagonist mode) Top % Inhibition at maximal concentration [14]: cAMP 67%
- IC50 [10]: 167 nM
- Ki [10]: 117 nM

SMILES: Cc1nc2n(c(=O)c1CCN1CCC(c3noc4cc(F)ccc34)CC1)CCCC2 [risperidone, Risperidone, reference compound]
- number of avoidance responses compared to vehicle (Sprague Dawley rats [9]; [16]): significantly decrease
- percent avoidance compared to vehicle (Sprague Dawley rats [9]; [16]): significantly decrease
